PubChem BioAssay AID330 (DTP/NCI, 2004)
Inconclusive results and toxic doses are left out. Rule for the calls: active = survival T/C of 150% or more; inactive = T/C below 125% in these data.

Tested on: P388 leukemia ip, CD2F1 mice, survival T/C
Test: NCI In Vivo Anticancer Drug Screen. Data for tumor model P388 Leukemia (intraperitoneal) in CD2F1 (CDF1) mice
Conditions: endpoint: median survival time, higher = longer survival
Method in brief: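 Mice carrying the transplanted tumor received test compound or vehicle. Survival was recorded in each group, and the value is the treated-group measurement divided by that of the vehicle-treated control group.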

[1] = dose: 12.5 mg/kg/injection, schedule: Q01DX005 (ip), vehicle: saline with Tween-80
[2] = dose: 25.0 mg/kg/injection, schedule: Q01DX005 (ip), vehicle: saline with Tween-80
[3] = dose: 50.0 mg/kg/injection, schedule: Q01DX005 (ip), vehicle: saline with Tween-80
[4] = dose: 100.0 mg/kg/injection, schedule: Q01DX005 (ip), vehicle: saline with Tween-80

Measured: T/C

CCCOc1cc2c(cc1C(C)c1ccc(OCC)cc1)OCO2 (stereo not drawn)
inactive: [1] 100 % of control | [2] 110 % of control | [3] 115 % of control | dose: 60.0 mg/kg/injection, schedule: Q01DX005 (ip), vehicle: saline with Tween-80 105 % of control | dose: 120.0 mg/kg/injection, schedule: Q01DX005 (ip), vehicle: saline with Tween-80 113 % of control

N=C(N)c1nc2ccccc2s1
inactive: dose: 12.5 mg/kg/injection, schedule: Q01DX009 (ip), vehicle: other 102 % of control | dose: 25.0 mg/kg/injection, schedule: Q01DX009 (ip), vehicle: other 104 % of control | dose: 50.0 mg/kg/injection, schedule: Q01DX009 (ip), vehicle: other 93 % of control

CCOC(=O)c1[nH]c2ccc(O)c3c2c1CCC3=O
inactive: dose: 50.0 mg/kg/injection, schedule: Q01DX009 (ip), vehicle: saline with Tween-80 92 % of control | dose: 100.0 mg/kg/injection, schedule: Q01DX009 (ip), vehicle: saline with Tween-80 88 % of control | dose: 200.0 mg/kg/injection, schedule: Q01DX009 (ip), vehicle: saline with Tween-80 94 % of control

COc1cc2cnccc2cc1O
inactive: dose: 6.25 mg/kg/injection, schedule: Q01DX009 (ip), vehicle: water 92 % of control | dose: 12.5 mg/kg/injection, schedule: Q01DX009 (ip), vehicle: water 103 % of control | dose: 25.0 mg/kg/injection, schedule: Q01DX009 (ip), vehicle: water 98 % of control | dose: 50.0 mg/kg/injection, schedule: Q01DX009 (ip), vehicle: water 95 % of control | dose: 100.0 mg/kg/injection, schedule: Q01DX009 (ip), vehicle: water 110 % of control

COC(=O)Nc1nc2ccc(C(=O)C3CC3)cc2[nH]1
active: [4] 180 % of control
inactive: [1] 111 % of control | [2] 108 % of control | [3] 117 % of control

COc1cc(C2c3cc(O)c(OC)cc3CC(C(N)=O)C2CO)ccc1O (stereo not drawn)
inactive: [3] 100 % of control | [4] 100 % of control | dose: 200.0 mg/kg/injection, schedule: Q01DX005 (ip), vehicle: saline with Tween-80 98 % of control

NC(=O)c1[nH]cnc1/N=N/N(CCCl)Cc1ccccc1
inactive: dose: 44.0 mg/kg/injection, schedule: Q01DX009 (ip), vehicle: Klucel (hydroxypropylcellulose) (HPC) 122 % of control
active: dose: 100.0 mg/kg/injection, schedule: Q01DX009 (ip), vehicle: Klucel (hydroxypropylcellulose) (HPC) 196 % of control | dose: 150.0 mg/kg/injection, schedule: Q01DX009 (ip), vehicle: Klucel (hydroxypropylcellulose) (HPC) 196 % of control | dose: 200.0 mg/kg/injection, schedule: Q04DX003 (ip), vehicle: Klucel (hydroxypropylcellulose) (HPC) 182 % of control | dose: 400.0 mg/kg/injection, schedule: Q04DX003 (ip), vehicle: Klucel (hydroxypropylcellulose) (HPC) 256 % of control

COC(=O)C1C2CC3c4[nH]c5cc(OC)c(Br)cc5c4CCN3CC2CC(OC(=O)c2cc(OC)c(OC)c(OC)c2)C1OC (stereo not drawn)
inactive: dose: 3.75 mg/kg/injection, schedule: Q01DX005 (ip), vehicle: Klucel (hydroxypropylcellulose) (HPC) 104 % of control | dose: 7.5 mg/kg/injection, schedule: Q01DX005 (ip), vehicle: Klucel (hydroxypropylcellulose) (HPC) 94 % of control | dose: 15.0 mg/kg/injection, schedule: Q01DX005 (ip), vehicle: Klucel (hydroxypropylcellulose) (HPC) 104 % of control | dose: 30.0 mg/kg/injection, schedule: Q01DX005 (ip), vehicle: Klucel (hydroxypropylcellulose) (HPC) 108 % of control

Cc1ccc(C(=O)NCCN2CCN3Cc4[nH]c5ccccc5c4CC3C2)cc1 (stereo not drawn)
inactive: dose: 100.0 mg/kg/injection, schedule: Q04DX002 (ip), vehicle: saline with Tween-80 92 % of control | dose: 200.0 mg/kg/injection, schedule: Q04DX002 (ip), vehicle: saline with Tween-80 105 % of control

CCCCOc1cccc2c(NCCCCNCCCNc3c4ccccc4nc4c(OCCCC)cccc34)c3ccccc3nc12
inactive: dose: 0.63 mg/kg/injection, schedule: Q01DX009 (ip), vehicle: other 105 % of control | dose: 1.25 mg/kg/injection, schedule: Q01DX009 (ip), vehicle: other 120 % of control | dose: 2.5 mg/kg/injection, schedule: Q01DX009 (ip), vehicle: other 111 % of control | dose: 5.0 mg/kg/injection, schedule: Q01DX009 (ip), vehicle: other 121 % of control

CN(C)CC(CN(C)C)C(=O)c1ccc(Oc2ccccc2)cc1
inactive: dose: 7.5 mg/kg/injection, schedule: Q01DX005 (ip), vehicle: saline 123 % of control | dose: 15.0 mg/kg/injection, schedule: Q01DX005 (ip), vehicle: saline 120 % of control

N#CC(NCC1(O)CCCCC1)C(O)c1ccccc1 (stereo not drawn)
inactive: dose: 25.0 mg/kg/injection, schedule: Q01DX009 (ip), vehicle: suspension in saline 94 % of control | dose: 50.0 mg/kg/injection, schedule: Q01DX009 (ip), vehicle: suspension in saline 108 % of control | dose: 100.0 mg/kg/injection, schedule: Q01DX009 (ip), vehicle: suspension in saline 109 % of control
